Publication PMC8071274 (International Journal of Molecular Sciences, 2021)
“Also recorded” adds a separate entry of the source. Where a SMILES comes first, the peptide text is derived from it. Where no end group is shown, it is not given here. The star is where a group is joined. For = O=C*

Key:
[1] = test system: differentiated HL-60 cells; type: cell-based, human; details: 72 h
Procedure: HEK-293 cells (American Type Culture Collection, Manassas, VA, USA) were maintained in DMEM (Thermo Fisher Scientific, Waltham, MA, USA) containing 10% FBS (Thermo Fisher Scientific) in a humidified atmosphere at 5% CO2 and 37 °C. Human acute leukemia-derived HL-60 cells (RIKEN Cell Bank, Ibaraki, Japan) were cultured in RPMI-1640 medium (Thermo Fisher Scientific) containing 10% FBS in a humidified atmosphere at 5% CO2 and 37 °C. HL-60 cells were treated with 500 μM dibutyryl-cAMP (Sigma-Aldrich, St. Louis, MO, USA) for 72 h to differentiate the cells into neutrophilic/granulocytic cells as described elsewhere. The ability of MCT-2-related peptides to activate HL-60 cells differentiated into neutrophilic/granulocytic cells was evaluated by stimulation of β-hexosaminidase secretion from the cells. Briefly, differentiated HL-60 cells were washed 3 times with ice-cold HEPES-buffered Hank’s solution (HBHS; 10 mM HEPES, 136.9 mM NaCl, 5.4 mM KCl, 1.2 mM CaCl2, 0.44 mM KH2PO4, 0.49 mM MgCl2, 0.41 mM MgSO4, 0.34 mM Na2HPO4, 5.5 mM glucose, 4.2 mM NaHCO3, and 0.1% BSA, pH 7.4). The cells were resuspended in HBHS at a density of 5.6 × 10^6 cells/mL, and DNase I (Sigma-Aldrich) and cytochalasin B (Sigma-Aldrich) were each added at a final concentration of 5 μg/mL. The cell suspension in each tube (5.0 × 10^5 cells/90 μL) was preincubated at 37 °C for 10 min and stimulated with 10 μL synthetic peptide solution at 37 °C for 10 min. The inhibitory effects of inhibitors against FPR1 [CysH (Sigma-Aldrich)] and FPR2 [PBP10 (Tocris Bioscience, Bristol, UK)] on β-hexosaminidase release induced by MCT-2 and its derivatives were also evaluated in the differentiated HL-60 cells; each cell suspension prepared as above (90 μL) was transferred to a tube (5.0 × 10^5 cells/tube) with 5 μL inhibitor solution for FPR1 (CysH) or FPR2 (PBP10). Each tube was then preincubated at 37 °C for 10 min and stimulated with 5 μL synthetic peptide solution at 37 °C for 10 min. After stimulation, 200 μL ice-cold reaction quenching buffer (25 mM Tris, 123 mM NaCl, and 2.7 mM KCl, pH 7.4) was added to each cell suspension to stop the reaction. Thereafter, these tubes were centrifuged at 4 °C and 2300× g for 1 min, and each supernatant was transferred into a new tube. β-Hexosaminidase activity in the supernatant was measured as described previously. Briefly, 90 μL supernatant was transferred to each well of a 96-well microtiter plate, and 60 μL of a substrate solution for β-hexosaminidase [10 mM p-nitrophenyl N-acetyl-β-D-glucosaminide (Sigma-Aldrich), 40 mM citrate, and 70 mM NaHPO4, pH 4.5] was added to initiate the enzyme reaction. After incubation of the plate at 37 °C for 1 h, 100 μL of 400 mM glycine (pH 10.7) was added to stop the reaction. The absorbance at 415 nm for the resulting p-nitrophenol and at 490 nm for the reference was measured using a microtiter plate reader (Viento XS; BioTek Instruments, Winooski, VT, USA). The ability of each peptide to induce β-hexosaminidase release was expressed as a percentage of enzyme secretion promoted by 10 μM MCT-2(1–15) that induced the maximum response for the elucidation of full or partial agonists to the activity of MCT-2(1–15) (Figure 2 and Figure 4, Table 2) or a percentage of the total enzyme activity, which was the enzyme activity released after disruption of the cells with 0.05% Triton X-100 (Figure 3).

[2] = Time-dependent alteration of molecular forms of MCT-2(1–15) in mouse serum (RP-HPLC, MALDI-TOF-MS); type: in vitro ADME; details: 37 °C; for time of maximum amount of the degradation product in serum: RP-HPLC, MALDI-TOF-MS
Procedure: Male C57BL/6JJcl mice, 12–14 weeks of age, weighing 25–30 g, were anesthetized (50 mg/kg pentobarbital), and blood was collected from the caudal vena cava and stored overnight at 4 °C. The blood sample was centrifuged at 4 °C and 20,000× g for 20 min, and the supernatant was transferred to a new tube as mouse serum and stored at −80 °C. MCT-2(1–15) was incubated in mouse serum at a final concentration of 500 μM at 37 °C, and aliquots (100 μL) were collected from the incubation mixture after 0, 1, 2, 4, 24, and 48 h. These aliquots were mixed with TCA (final concentration: 3% w/v) and kept on ice for 30 min to precipitate denatured proteins. The samples were centrifuged at 4 °C and 13,000× g for 15 min, and the supernatants were analyzed by RP-HPLC on a C18 column (4.6 × 150 mm, Cosmosil; Nacalai Tesque, Inc.). RP-HPLC peaks that contained MCT-2(1–15) and its derivative peptides were analyzed by MALDI-TOF-MS to identify their molecular forms.

[3] = mouse serum; details: Male C57BL/6JJcl mice, 37 °C, up to 48 h
[4] = product formed from 500 μM MCT-2(1–15) in mouse serum
[5] = product formed from 500 μM MCT-2(1–15) in mouse serum, 4 h

Q: Which EC50 [1] does the source give for `CC[C@H](C)[C@H](NC(=O)[C@H](CC(C)C)NC(=O)[C@H](CCCCN)NC(=O)[C@H](CCSC)NC(=O)[C@H](CC(C)C)NC(=O)[C@@H]1CCCN1C(=O)[C@H](CC(N)=O)NC(=O)[C@@H](NC(=O)[C@H](CCCCN)NC(=O)[C@H](CCCNC(=N)N)NC(=O)[C@H](CCSC)NC(=O)[C@@H]1CCCN1C(=O)[C@@H](NC(=O)[C@H](CCSC)NC=O)[C@@H](C)O)[C@@H](C)CC)C(=O)N[C@@H](CC(N)=O)C(=O)O` [MCT-2(1–15), Mitocryptide-2] (For-MTPMRKINPLMKLIN-OH) here?
A: Its EC50 is 20 ± 3.39 nM.

Q: What about the metabolised at 1 h, 500 μM ([2]; male, C57BL/6JJcl, mouse serum, 500 μM peptide, 1 h, TCA precipitation, RP-HPLC (214 nm), read-out: reduction of amount of peptide in serum at 1 h) of the same compound?
A: The metabolised at 1 h, 500 μM was roughly 50%.

Q: What about the metabolised at 2 h, 500 μM ([2]; male, C57BL/6JJcl, mouse serum, 500 μM peptide, 2 h, TCA precipitation, RP-HPLC (214 nm), read-out: reduction of amount of peptide in serum at 2 h) of the same compound?
A: Its metabolised at 2 h, 500 μM is roughly 80%.

Q: And the half-life at 500 μM ([2]; male, C57BL/6JJcl, mouse serum, 500 μM peptide, RP-HPLC (214 nm))?
A: Its half-life at 500 μM is roughly 1 h.

Q: What about the “peptide remaining in serum at 4 h” value ([2]; mouse serum, 500 μM peptide, 4 h, RP-HPLC (214 nm)) of the same compound?
A: The value was “completely disappeared”.

Q: With `CSCC[C@H](NC(=O)[C@@H]1CCCN1C(=O)[C@@H](NC(=O)[C@H](CCSC)NC=O)[C@@H](C)O)C(=O)O` [MCT-2(1–4)] (For-MTPM-OH) as the compound, how does the EC50 [1] read?
A: Its EC50 is 18000 nM.

Q: What about the “time of first detection of the degradation product in serum” value [2, 4] of the same compound?
A: The value was 1 h.

Q: And the “time the degradation product was present in serum” value [2, 4]?
A: The value was “more than 48 h”.

Q: And the “presence of the degradation product in serum at 48 h” value ([2]; product formed from 500 μM MCT-2(1–15) in mouse serum, 48 h)?
A: The value was “still present”.

Q: What about the “time of maximum amount of the degradation product in serum” value [2, 4] of the same compound?
A: Its value is 4 h.

Q: Which EC50 [1] does the source give for `CC[C@H](C)[C@H](NC(=O)[C@H](CC(C)C)NC(=O)[C@H](CCCCN)NC(=O)[C@H](CCSC)NC(=O)[C@H](CC(C)C)NC(=O)[C@@H]1CCCN1C(=O)[C@H](CC(N)=O)NC(=O)[C@@H](NC(=O)[C@H](CCCCN)NC(=O)[C@H](CCCNC(=N)N)NC(=O)[C@H](CCSC)NC(=O)[C@@H]1CCCN1C(=O)[C@H](C)NC(=O)[C@H](CCSC)NC=O)[C@@H](C)CC)C(=O)N[C@@H](CC(N)=O)C(=O)O` [[Ala^2]MCT-2] (For-MAPMRKINPLMKLIN-OH) here?
A: Its EC50 is 0.61 ± 0.07 nM.

Q: For `CC[C@H](C)[C@H](NC(=O)[C@H](CC(C)C)NC(=O)[C@H](C)NC(=O)[C@H](CCSC)NC(=O)[C@H](CC(C)C)NC(=O)[C@@H]1CCCN1C(=O)[C@H](CC(N)=O)NC(=O)[C@@H](NC(=O)[C@H](CCCCN)NC(=O)[C@H](CCCNC(=N)N)NC(=O)[C@H](CCSC)NC(=O)[C@@H]1CCCN1C(=O)[C@@H](NC(=O)[C@H](CCSC)NC=O)[C@@H](C)O)[C@@H](C)CC)C(=O)N[C@@H](CC(N)=O)C(=O)O` [[Ala^12]MCT-2] (For-MTPMRKINPLMALIN-OH), which EC50 [1] is on record?
A: Its EC50 is 12.3 ± 0.29 nM.

Q: For `CC[C@H](C)[C@H](NC(=O)[C@H](CC(C)C)NC(=O)[C@H](CCCCN)NC(=O)[C@H](CCSC)NC(=O)[C@H](CC(C)C)NC(=O)[C@@H]1CCCN1C(=O)[C@H](CC(N)=O)NC(=O)[C@@H](NC(=O)[C@H](CCCCN)NC(=O)[C@H](CCCNC(=N)N)NC(=O)[C@H](CCSC)NC(=O)[C@H](C)NC(=O)[C@@H](NC(=O)[C@H](CCSC)NC=O)[C@@H](C)O)[C@@H](C)CC)C(=O)N[C@@H](CC(N)=O)C(=O)O` [[Ala^3]MCT-2] (For-MTAMRKINPLMKLIN-OH), which EC50 [1] is on record?
A: The EC50 was 16.3 ± 0.29 nM.

Q: Which EC50 [1] does the source give for `CC[C@H](C)[C@H](NC(=O)[C@H](CCCCN)NC(=O)[C@H](CCCNC(=N)N)NC(=O)[C@H](CCSC)NC(=O)[C@@H]1CCCN1C(=O)[C@@H](NC(=O)[C@H](CCSC)NC=O)[C@@H](C)O)C(=O)N[C@@H](CC(N)=O)C(=O)N1CCC[C@H]1C(=O)O` [MCT-2(1–9)] (For-MTPMRKINP-OH) here?
A: Its EC50 is 10800 nM.

Q: With `CSCC[C@H](NC=O)C(=O)N[C@H](C(=O)N1CCC[C@H]1C(=O)N[C@@H](CCSC)C(=O)N[C@@H](CCCNC(=N)N)C(=O)N[C@@H](CCCCN)C(=O)O)[C@@H](C)O` [MCT-2(1–6)] (For-MTPMRK-OH) as the compound, how does the EC50 [1] read?
A: The EC50 was 203000 nM.

Q: For `CC[C@H](C)[C@H](NC(=O)[C@H](CC(C)C)NC(=O)[C@H](CCCCN)NC(=O)[C@H](CCSC)NC(=O)[C@H](C)NC(=O)[C@@H]1CCCN1C(=O)[C@H](CC(N)=O)NC(=O)[C@@H](NC(=O)[C@H](CCCCN)NC(=O)[C@H](CCCNC(=N)N)NC(=O)[C@H](CCSC)NC(=O)[C@@H]1CCCN1C(=O)[C@@H](NC(=O)[C@H](CCSC)NC=O)[C@@H](C)O)[C@@H](C)CC)C(=O)N[C@@H](CC(N)=O)C(=O)O` [[Ala^10]MCT-2] (For-MTPMRKINPAMKLIN-OH), which EC50 [1] is on record?
A: The EC50 was 73 ± 13.3 nM.

Q: Which EC50 [1] does the source give for `CC[C@H](C)[C@H](NC(=O)[C@H](CCCCN)NC(=O)[C@H](CCCNC(=N)N)NC(=O)[C@H](CCSC)NC(=O)[C@@H]1CCCN1C(=O)[C@@H](NC(=O)[C@H](CCSC)NC=O)[C@@H](C)O)C(=O)N[C@@H](CC(N)=O)C(=O)N1CCC[C@H]1C(=O)N[C@@H](CC(C)C)C(=O)N[C@@H](CCSC)C(=O)O` [MCT-2(1–11)] (For-MTPMRKINPLM-OH) here?
A: The EC50 was 547 ± 93.9 nM.

Q: What about the “time of first detection of the degradation product in serum” value [2, 4] of the same compound?
A: The value was 1 h.

Q: What about the “presence of the degradation product in serum at 4 h” value [2, 5] of the same compound?
A: The value was “not found”.

Q: And the “time of maximum amount of the degradation product in serum” value [2, 4]?
A: The value was 1 h.

Q: With For-MTPMRKINPLMKLIN as the compound, how does the fragment found [3] read?
A: The fragment found was “MCT-2(1–11), 1 h; also recorded: MCT-2(1–10), 1 h; also recorded: MCT-2(1–4), 1 h”.

Q: What does the source list for `CC[C@H](C)[C@H](NC(=O)[C@H](CCCCN)NC(=O)[C@H](CCCNC(=N)N)NC(=O)[C@H](CCSC)NC(=O)[C@@H]1CCCN1C(=O)[C@@H](NC(=O)[C@H](CCSC)NC=O)[C@@H](C)O)C(=O)N[C@@H](CC(N)=O)C(=O)N1CCC[C@H]1C(=O)N[C@@H](CC(C)C)C(=O)O` [MCT-2(1–10)] (For-MTPMRKINPL-OH)?
A: EC50 [1]: 1800 ± 173 nM; time of first detection of the degradation product in serum [2, 4]: 1 h; presence of the degradation product in serum at 4 h [2, 5]: not found; time of maximum amount of the degradation product in serum [2, 4]: 2 h
